The text below walks through data of patent publication US20240092773A1, “DIHYDRO-CYCLOPENTA-ISOQUINOLINE SULFONAMIDES DERIVATIVES” (UCB Biopharma SRL, priority 2019, published 2024).

The test deals with IgE-Tb binding to soluble IgE receptor FcεR1α (Y131A mutation) (Homo sapiens, UniProt P01854, N146Q/N252Q). Briefly: In vitro FRET assay: inhibition of binding of IgE-Tb to receptor FcεR1α-Y131A-AF488. The settings on record: read-out: FRET IC50 range.
Chain of IgE-Tb binding to soluble IgE receptor FcεR1α (Y131A mutation) (P01854 whole entry N146Q/N252Q, looked up): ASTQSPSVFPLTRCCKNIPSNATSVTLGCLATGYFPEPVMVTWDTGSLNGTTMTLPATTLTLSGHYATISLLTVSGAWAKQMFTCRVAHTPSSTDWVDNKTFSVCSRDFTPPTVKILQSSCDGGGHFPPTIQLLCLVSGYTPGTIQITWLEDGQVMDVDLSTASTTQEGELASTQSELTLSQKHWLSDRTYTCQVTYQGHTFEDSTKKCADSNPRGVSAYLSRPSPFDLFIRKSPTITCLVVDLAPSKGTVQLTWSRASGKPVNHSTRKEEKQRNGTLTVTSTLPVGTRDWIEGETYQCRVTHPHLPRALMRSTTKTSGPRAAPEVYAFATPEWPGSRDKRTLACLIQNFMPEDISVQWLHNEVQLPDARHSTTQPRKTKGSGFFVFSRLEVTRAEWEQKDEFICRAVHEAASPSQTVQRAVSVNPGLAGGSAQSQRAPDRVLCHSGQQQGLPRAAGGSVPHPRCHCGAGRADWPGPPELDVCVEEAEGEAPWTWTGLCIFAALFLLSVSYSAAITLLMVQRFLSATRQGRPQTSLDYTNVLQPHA
`CC(C)CNS(=O)(=O)c1cc2c(c3cnc(C4CC4)cc13)C(O)CC2` (centres unmarked) [Example 62, 3-cyclopropyl-9-hydroxy-N-(2-methylpropyl)-8,9-dihydro-7H-cyclopenta[h]isoquinoline-5-sulfonamide]: the IC50 is 100 to 2000 nM.
To `CCNC(=S)NC1CCc2cc(S(=O)(=O)NCC(C)C)c3cc(C4CC4)ncc3c21` (centres unmarked) [Example 71, 1-[3-cyclopropyl-5-(2-methylpropylsulfamoyl)-8,9-dihydro-7H-cyclopenta[h]isoquinolin-9-yl]-3-ethylthiourea] belongs 100 to 2000 nM; to `CC(C)CNS(=O)(=O)c1cc2c(c3cnc(C4CC4)cc13)CCC2NS(C)(=O)=O` (centres unmarked) [Example 83, 3-cyclopropyl-7-(methanesulfonamido)-N-(2-methylpropyl)-8,9-dihydro-7H-cyclopenta[h]isoquinoline-5-sulfonamide], 100 to 2000 nM; to `Cc1cc(CNC(=O)NC2CCc3cc(S(=O)(=O)NCC(C)C)c4cc(C5CC5)ncc4c32)n(C)n1` (centres unmarked) [Example 46, 1-[3-cyclopropyl-5-(2-methylpropylsulfamoyl)-8,9-dihydro-7H-cyclopenta[h]isoquinolin-9-yl]-3-[(2,5-dimethylpyrazol-3-yl)methyl]urea], 100 to 2000 nM.
To `[2H]C([2H])(NS(=O)(=O)c1cc2c(c3cnc(C4CC4)cc13)CCC2n1cnnc1NCC1CC1)C(C)C` (centres unmarked) [Example 35, 3-cyclopropyl-7-[3-(cyclopropylmethylamino)-1,2,4-triazol-4-yl]-N-(1,1-dideuterio-2-methylpropyl)-8,9-dihydro-7H-cyclopenta[h]isoquinoline-5-sulfonamide] belongs 10 to 50 nM; to `CCNc1c(NC2CCc3c2cc(S(=O)(=O)NCC(C)C)c2cc(C4CC4)ncc32)c(=O)c1=O` (single isomer, unassigned) [Example 53, (7R*)-3-cyclopropyl-7-[[2-(ethylamino)-3,4-dioxocyclobuten-1-yl]amino]-N-(2-methylpropyl)-8,9-dihydro-7H-cyclopenta[h]isoquinoline-5-sulfonamide], 10 to 50 nM; to `CC(C)(F)CNS(=O)(=O)c1cc2c(c3cnc(C4CC4)cc13)CCC2NC1=CC(=O)C1(C)C` (centres unmarked) [Example 60, 3-cyclopropyl-7-[(4,4-dimethyl-3-oxocyclobuten-1-yl)amino]-N-(2-fluoro-2-methylpropyl)-8,9-dihydro-7H-cyclopenta[h]isoquinoline-5-sulfonamide], 100 to 2000 nM.
As to `CC(C)CNS(=O)(=O)c1cc2c(c3cnc(C4CC4)cc13)C(NC(=O)OCc1ccccc1)CC2` (centres unmarked) [Example 44, benzyl N-[3-cyclopropyl-5-(2-methylpropylsulfamoyl)-8,9-dihydro-7H-cyclopenta[h]isoquinolin-9-yl]carbamate], the IC50 was 100 to 2000 nM.
For `CCNc1nncn1C1CCc2cc(S(=O)(=O)NCC(C)C)c3cc(C4CC4)ncc3c21` (centres unmarked) [Example 72, 3-cyclopropyl-9-[3-(ethylamino)-1,2,4-triazol-4-yl]-N-(2-methylpropyl)-8,9-dihydro-7H-cyclopenta[h]isoquinoline-5-sulfonamide], the IC50 fell in the range of 100 to 2000 nM.
To `CC(C)CNS(=O)(=O)c1cc2c(c3cnc(C4CC4)cc13)[C@H](NC(=O)c1cccnc1)CC2` (single isomer, unassigned) [Example 21, N-[(9R*)-3-cyclopropyl-5-(2-methylpropylsulfamoyl)-8,9-dihydro-7H-cyclopenta[h]isoquinolin-9-yl]pyridine-3-carboxamide] belongs 10 to 50 nM; to `COc1cncc(NC2CCc3cc(S(=O)(=O)NCC(C)(C)F)c4cc(C5CC5)ncc4c32)c1` (centres unmarked) [Example 30, 3-cyclopropyl-N-(2-fluoro-2-methylpropyl)-9-[(5-methoxypyridin-3-yl)amino]-8,9-dihydro-7H-cyclopenta[h]isoquinoline-5-sulfonamide], 10 to 50 nM; to `Cn1c(NC2CCc3cc(S(=O)(=O)NCC(C)(C)F)c4cc(C5CC5)ncc4c32)nc2ccccc21` (centres unmarked) [Example 17, 3-cyclopropyl-N-(2-fluoro-2-methylpropyl)-9-[(1-methylbenzimidazol-2-yl)amino]-8,9-dihydro-7H-cyclopenta[h]isoquinoline-5-sulfonamide], 100 to 2000 nM.
The result for `CC(C)CNS(=O)(=O)c1cc2c(c3cnc(C4CC4)cc13)C(Nc1nncn1-c1cncc(F)c1)CC2` (centres unmarked) [Example 5, 3-cyclopropyl-9-[[4-(5-fluoro-3-pyridyl)-1,2,4-triazol-3-yl]amino]-N-isobutyl-8,9-dihydro-7H-cyclopenta[h]isoquinoline-5-sulfonamide] reads 100 to 2000 nM; that for `CC(C)(F)CNS(=O)(=O)c1cc2c(c3cnc(C4CC4)cc13)CCC2C(=O)O` (centres unmarked) [Example 7, 3-cyclopropyl-5-[(2-fluoro-2-methylpropyl)sulfamoyl]-8,9-dihydro-7H-cyclopenta[h]isoquinoline-7-carboxylic Acid], 100 to 2000 nM.
Take `Cc1cc(NC(=S)NC2CCc3c2cc(S(=O)(=O)NCC(C)(C)F)c2cc(C4CC4)nnc32)n(C)n1` (centres unmarked) [Example 23, 1-[3-cyclopropyl-5-[(2-fluoro-2-methylpropyl)sulfamoyl]-8,9-dihydro-7H-cyclopenta[h]cinnolin-7-yl]-3-(2,5-dimethylpyrazol-3-yl)thiourea]: the IC50 was 10 to 50 nM.
With `CC(C)CNS(=O)(=O)c1cc2c(c3cnc(C4CC4)cc13)C(Nc1nncn1-c1cccnc1)CC2` (centres unmarked) [Example 75, 3-cyclopropyl-N-(2-methylpropyl)-9-[(4-pyridin-3-yl-1,2,4-triazol-3-yl]amino]-8,9-dihydro-7H-cyclopenta[h]isoquinoline-5-sulfonamide], the IC50 lay within 10 to 50 nM.
The result for `Cc1cncc(Nc2nncn2[C@@H]2CCc3c2cc(S(=O)(=O)NCC(C)C)c2cc(C4CC4)ncc32)c1` (single isomer, unassigned) [Example 89, (7R*)-3-cyclopropyl-N-(2-methylpropyl)-7-[3-[(5-methylpyridin-3-yl)amino]-1,2,4-triazol-4-yl]-8,9-dihydro-7H-cyclopenta[h]isoquinoline-5-sulfonamide] reads 1 to 10 nM; that for `COc1ccnc2c1ncn2C1CCc2c1cc(S(=O)(=O)NCC(C)(C)F)c1cc(C3CC3)ncc21` (centres unmarked) [Example 1, 3-cyclopropyl-N-(2-fluoro-2-methylpropyl)-7-(7-methoxyimidazo[4,5-b]pyridin-3-yl)-8,9-dihydro-7H-cyclopenta[h]isoquinoline-5-sulfonamide], 100 to 2000 nM; that for `CCNC(=O)N[C@@H]1CCc2c1cc(S(=O)(=O)NCC(C)C)c1cc(C3CC3)ncc21` (stereo in doubt) [Example 85, 1-ethyl-3-[(7R*)-3-cyclopropyl-5-(2-methylpropylsulfamoyl-8,9-dihydro-7H-cyclopenta[h]isoquinolin-7-yl]urea], 10 to 50 nM.
The result for `Cn1ncc2c(NC3CCc4cc(S(=O)(=O)NCC(C)(C)F)c5cc(C6CC6)ncc5c43)cncc21` (centres unmarked) [Example 43, 3-cyclopropyl-N-(2-fluoro-2-methylpropyl)-9-[(1-methylpyrazolo[3,4-c]pyridin-4-yl)amino]-8,9-dihydro-7H-cyclopenta[h]isoquinoline-5-sulfonamide] reads 100 to 2000 nM.
The result for `CCn1cnnc1NC1CCc2cc(S(=O)(=O)NCC(C)C)c3cc(C4CC4)ncc3c21` (single isomer, unassigned) [Example 73, (9R*)-3-cyclopropyl-9-[(4-ethyl-1,2,4-triazol-3-yl)amino]-N-(2-methylpropyl)-8,9-dihydro-7H-cyclopenta[h]isoquinoline-5-sulfonamide] reads 10 to 50 nM; that for `Cn1ncc2c(NC3CCc4c3cc(S(=O)(=O)NCC(C)(C)F)c3cc(C5CC5)ncc43)cncc21` (centres unmarked) [Example 41, 3-cyclopropyl-N-(2-fluoro-2-methylpropyl)-7-[(1-methylpyrazolo[3,4-c]pyridin-4-yl)amino]-8,9-dihydro-7H-cyclopenta[h]isoquinoline-5-sulfonamide], 10 to 50 nM.
As to `O=S(=O)(NC1CC(F)C1)c1cc2c(c3cnc(C4CC4)cc13)CCC2n1cnnc1NCC1CC1` (centres unmarked) [Example 82, 3-cyclopropyl-7-[3-(cyclopropylmethylamino)-1,2,4-triazol-4-yl]-N-(3-fluorocyclobutyl)-8,9-dihydro-7H-cyclopenta[h]isoquinoline-5-sulfonamide], the IC50 fell in the range of 100 to 2000 nM.
In the case of `CCNc1c(N[C@@H]2CCc3cc(S(=O)(=O)NCC(C)C)c4cc(C5CC5)ncc4c32)c(=O)c1=O` (single isomer, unassigned) [Example 79, (9R*)-3-cyclopropyl-9-[[2-(ethylamino)-3,4-dioxocyclobuten-1-yl]amino]-N-(2-methylpropyl)-8,9-dihydro-7H-cyclopenta[h]isoquinoline-5-sulfonamide], the concentration for half-maximal inhibition (IC50) lay in the range of 10 to 50 nM.
The result for `CC(C)CNS(=O)(=O)c1cc2c(c3cnc(C4CC4)cc13)C(Nc1ccc(C(=O)O)nc1)CC2` (centres unmarked) [Example 19, 5-[[3-cyclopropyl-5-(2-methylpropylsulfamoyl)-8,9-dihydro-7H-cyclopenta[h]isoquinolin-9-yl]amino]pyridine-2-carboxylic Acid] reads 100 to 2000 nM; that for `CC(C)CNS(=O)(=O)c1cc2c(c3nnc(C4CC4)cc13)CCC2` [Example 22, 3-cyclopropyl-N-(2-methylpropyl)-8,9-dihydro-7H-cyclopenta[h]cinnoline-5-sulfonamide], 50 to 100 nM; that for `CC(C)CNS(=O)(=O)c1cc2c(c3cnc(C4CC4)cc13)C(NCc1cccnc1)CC2` (centres unmarked) [Example 14, 3-cyclopropyl-N-(2-methylpropyl)-9-(pyridin-3-ylmethylamino)-8,9-dihydro-7H-cyclopenta[h]isoquinoline-5-sulfonamide], 100 to 2000 nM.
The result for `Cn1nnc(-c2ccc(NC3CCc4c3cc(S(=O)(=O)NCC(C)(C)F)c3cc(C5CC5)ncc43)cn2)n1` (centres unmarked) [Example 40, 3-cyclopropyl-N-(2-fluoro-2-methylpropyl)-7-[[6-(2-methyltetrazol-5-yl)pyridin-3-yl]amino]-8,9-dihydro-7H-cyclopenta[h]isoquinoline-5-sulfonamide] reads 1 to 10 nM; that for `CC(C)CNS(=O)(=O)c1cc2c(c3cnc(C4CC4)cc13)C(NS(=O)(=O)c1cccnc1)CC2` (centres unmarked) [Example 15, 3-cyclopropyl-N-(2-methylpropyl)-9-(pyridin-3-ylsulfonylamino)-8,9-dihydro-7H-cyclopenta[h]isoquinoline-5-sulfonamide], 100 to 2000 nM.
